Source: publication PMC9884426, “A phase 1 clinical trial of the repurposable acetyllysine mimetic, n-methyl-2-pyrrolidone (NMP), in relapsed or refractory multiple myeloma” (Clinical Epigenetics, 2023)

Tested on: patients with relapsed/refractory multiple myeloma (RR–MM)
Experiment: Phase 1 dose-escalation trial of oral NMP: safety, adverse events (CTCAE 4.03), DLT, MTD
Assay type: in vivo
Method: This was a phase 1, open-label dose-escalation trial of orally administered NMP in patients with relapsed/refractory multiple myeloma (RR–MM). Eligible patients were ≥ 18 years old with Eastern Cooperative Oncology Group (ECOG) < 2 and histologically confirmed plasma cell myeloma defined by WHO 2008 criteria with measurable disease (defined by serum M-protein > 5 g/L, urine M-protein > 200 mg/24 h, involved serum free light chain > 100 mg/L or measurable soft tissue plasmacytoma). Patients were required to have relapsed following prior treatment and/or be refractory to or intolerant of both bortezomib and lenalidomide and must have undergone autologous stem cell transplant (unless deemed ineligible at investigator discretion). Exclusion criteria included: central nervous system involvement, active second malignancy within two years, uncontrolled medical conditions contraindicating an investigational agent due to inadequate organ function and concomitant exposure to anti-myeloma therapies.
The primary study endpoint was to determine the MTD of orally administered NMP in patients with RR–MM. Secondary endpoints included safety, PK analyses, IMWG defined response rate and exploratory immunological biomarkers. Adverse events were defined according to Common Terminology Criteria for Adverse Events (CTCAE version 4.03). Haematological DLTs were defined as grade 4 neutropenia unresponsive to G-CSF, grade 4 thrombocytopenia and febrile neutropenia. Non-haematological DLTs were grade 3 or higher and considered probably related to study drug and not attributable to disease progression and those resulting treatment delays greater than two weeks due to drug-related toxicity. Self-limited (< 24 h) gastrointestinal side effects (e.g. nausea, diarrhoea) responding to supportive measures were not classified as DLTs.
Pharmaceutical grade NMP stock solution (Ashland, Columbus, OH, USA) was diluted in ORA SWEET® SF (Medical Flavouring Systems, Vic, Australia) oral syrup vehicle and sterile water to a final concentration of 50 mg/mL and dispensed weekly in amber glass bottles for storage a room temperature. NMP was administered as a single morning dose on an empty stomach at least 30 min prior to food. Patients were dosed according to an ‘accelerated’ escalation schedule (one patient per dose level) in the absence of significant toxicity until a DLT was experienced and then in a 3 × 3 ‘standard’ dose-escalation phase. Intra-patient dose escalation at 100 mg increments was also permitted whereby the MTD had not been determined and the patient tolerated two consecutive cycles without DLT or an objective disease response. Treatment was administered daily for 28-day cycles until withdrawal from protocol due to toxicity or disease progression.

## CN1CCCC1=O [NMP, N-methyl-2-pyrrolidone]
13 patients
  grade 5 AEs: no grade 5 AEs
human, in vivo
  Anaemia: Total: 23%
  Anaemia: Total (patients): 3
  Anaemia: worst grade 1 (patients): 0
  Anaemia: worst grade 2 (patients): 1
  Anaemia: worst grade 3 (patients): 2
  Anaemia: worst grade 4 (patients): 0
  Anorexia: Total: 23%
  Anorexia: Total (patients): 3
  Anorexia: worst grade 1 (patients): 0
  Anorexia: worst grade 2 (patients): 3
  Anorexia: worst grade 3 (patients): 0
  Anorexia: worst grade 4 (patients): 0
  Constipation: Total: 15%
  Constipation: Total (patients): 2
  Constipation: worst grade 1 (patients): 1
  Constipation: worst grade 2 (patients): 1
  Constipation: worst grade 3 (patients): 0
  Constipation: worst grade 4 (patients): 0
  Diarrhoea: Total: 23%
  Diarrhoea: Total (patients): 3
  Diarrhoea: worst grade 1 (patients): 2
  Diarrhoea: worst grade 2 (patients): 0
  Diarrhoea: worst grade 3 (patients): 1
  Diarrhoea: worst grade 4 (patients): 0
  Dizziness: Total: 23%
  Dizziness: Total (patients): 3
  Dizziness: worst grade 1 (patients): 2
  Dizziness: worst grade 2 (patients): 1
  Dizziness: worst grade 3 (patients): 0
  Dizziness: worst grade 4 (patients): 0
  Dysgeusia: Total: 15%
  Dysgeusia: Total (patients): 2
  Dysgeusia: worst grade 1 (patients): 2
  Dysgeusia: worst grade 2 (patients): 0
  Dysgeusia: worst grade 3 (patients): 0
  Dysgeusia: worst grade 4 (patients): 0
  Fatigue: Total: 23%
  Fatigue: Total (patients): 3
  Fatigue: worst grade 1 (patients): 3
  Fatigue: worst grade 2 (patients): 0
  Fatigue: worst grade 3 (patients): 0
  Fatigue: worst grade 4 (patients): 0
  Fever: Total: 15%
  Fever: Total (patients): 2
  Fever: worst grade 1 (patients): 0
  Fever: worst grade 2 (patients): 0
  Fever: worst grade 3 (patients): 1
  Fever: worst grade 4 (patients): 1
  Grade 3–4 adverse events, patients: 54%
  Musculoskeletal pain: Total: 38%
  Musculoskeletal pain: Total (patients): 5
  Musculoskeletal pain: worst grade 1 (patients): 2
  Musculoskeletal pain: worst grade 2 (patients): 3
  Musculoskeletal pain: worst grade 3 (patients): 0
  Musculoskeletal pain: worst grade 4 (patients): 0
  Nausea: Total: 54%
  Nausea: Total (patients): 7
  Nausea: worst grade 1 (patients): 1
  Nausea: worst grade 2 (patients): 6
  Nausea: worst grade 3 (patients): 0
  Nausea: worst grade 4 (patients): 0
  Neutrophil count decreased: Total (patients): 3
  Neutrophil count decreased: worst grade 1 (patients): 0
  Neutrophil count decreased: worst grade 2 (patients): 1
  Neutrophil count decreased: worst grade 3 (patients): 2
  Neutrophil count decreased: worst grade 4 (patients): 0
  Overall adverse events: Total: 100%
  Overall adverse events: Total (patients): 13
  Overall adverse events: worst grade 1 (patients): 1
  Overall adverse events: worst grade 2 (patients): 5
  Overall adverse events: worst grade 3 (patients): 6
  Overall adverse events: worst grade 4 (patients): 1
  Peripheral sensory neuropathy: Total: 23%
  Peripheral sensory neuropathy: Total (patients): 3
  Peripheral sensory neuropathy: worst grade 1 (patients): 0
  Peripheral sensory neuropathy: worst grade 2 (patients): 3
  Peripheral sensory neuropathy: worst grade 3 (patients): 0
  Peripheral sensory neuropathy: worst grade 4 (patients): 0
  Pruritus: Total: 15%
  Pruritus: Total (patients): 2
  Pruritus: worst grade 1 (patients): 2
  Pruritus: worst grade 2 (patients): 0
  Pruritus: worst grade 3 (patients): 0
  Pruritus: worst grade 4 (patients): 0
  Renal dysfunction: Total: 15%
  Renal dysfunction: Total (patients): 2
  Renal dysfunction: worst grade 1 (patients): 0
  Renal dysfunction: worst grade 2 (patients): 0
  Renal dysfunction: worst grade 3 (patients): 2
  Renal dysfunction: worst grade 4 (patients): 0
  Sore throat: Total: 15%
  Sore throat: Total (patients): 2
  Sore throat: worst grade 1 (patients): 2
  Sore throat: worst grade 2 (patients): 0
  Sore throat: worst grade 3 (patients): 0
  Sore throat: worst grade 4 (patients): 0
  URTI: Total: 15%
  URTI: Total (patients): 2
  URTI: worst grade 1 (patients): 0
  URTI: worst grade 2 (patients): 2
  URTI: worst grade 3 (patients): 0
  URTI: worst grade 4 (patients): 0
  overall DLT rate: 8%
human, in vivo, po
  maximum tolerated dose (MTD): not defined
In vivo
  dose limiting toxicity (DLT) event: diarrhoea
